Data from PubChem BioAssay AID330 (DTP/NCI, 2004).
Toxic doses and inconclusive results are not listed. Rule for the calls: active = survival T/C of 150% or more; inactive = T/C below 125% in these data.

Test system: P388 leukemia ip, CD2F1 mice, survival T/C
Assay: NCI In Vivo Anticancer Drug Screen. Data for tumor model P388 Leukemia (intraperitoneal) in CD2F1 (CDF1) mice
Conditions: endpoint: median survival time, higher = longer survival
Outline: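 Mice carrying the transplanted tumor received test compound or vehicle. Survival was recorded in each group, and the value is the treated-group measurement divided by that of the vehicle-treated control group.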

[1] = dose: 50.0 mg/kg/injection, schedule: Q01DX009 (ip), vehicle: saline with Tween-80
[2] = dose: 100.0 mg/kg/injection, schedule: Q04DX003 (ip), vehicle: saline with Tween-80
[3] = dose: 200.0 mg/kg/injection, schedule: Q04DX003 (ip), vehicle: saline with Tween-80
[4] = dose: 400.0 mg/kg/injection, schedule: Q04DX003 (ip), vehicle: saline with Tween-80
[5] = dose: 50.0 mg/kg/injection, schedule: Q01DX009 (ip), vehicle: Klucel (hydroxypropylcellulose) (HPC)
[6] = dose: 50.0 mg/kg/injection, schedule: Q01DX005 (ip), vehicle: saline with Tween-80
[7] = dose: 100.0 mg/kg/injection, schedule: Q01DX005 (ip), vehicle: saline with Tween-80

Measured: T/C

O=C1Nc2ccccc2S/C1=C\c1cccc(C(F)(F)F)c1
inactive: [1] 94 % of control | dose: 100.0 mg/kg/injection, schedule: Q01DX009 (ip), vehicle: saline with Tween-80 100 % of control | dose: 200.0 mg/kg/injection, schedule: Q01DX009 (ip), vehicle: saline with Tween-80 105 % of control

COC(=O)/C=C/c1c(=O)c(C(=O)OC)cn2cnc3nc[nH]c3c12
inactive: [2] 97 % of control | [3] 93 % of control | [4] 98 % of control

COc1ccc(Cc2c3cc(OC)c(OC)cc3cc(=O)n2C)cc1OC
inactive: [5] 106 % of control | dose: 100.0 mg/kg/injection, schedule: Q01DX009 (ip), vehicle: Klucel (hydroxypropylcellulose) (HPC) 106 % of control

CCCCCCCOc1cccc(OCCCC[N+]2(CC)CCCCC2)c1
inactive: dose: 1.56 mg/kg/injection, schedule: Q01DX009 (ip), vehicle: saline 97 % of control | dose: 3.12 mg/kg/injection, schedule: Q01DX009 (ip), vehicle: saline 100 % of control | dose: 6.25 mg/kg/injection, schedule: Q01DX009 (ip), vehicle: saline 100 % of control

NC(CS(=O)Cc1ccccc1)C(=O)O (stereo unspecified)
inactive: [6] 95 % of control | [7] 102 % of control

O=[N+]([O-])c1cc(C(F)(F)F)ccc1F
inactive: dose: 25.0 mg/kg/injection, schedule: Q01DX009 (ip), vehicle: Klucel (hydroxypropylcellulose) (HPC) 106 % of control | [5] 106 % of control

Cc1nc(C(N)=O)c(=O)[nH]c1C
inactive: dose: 33.0 mg/kg/injection, schedule: Q04DX003 (ip), vehicle: saline 100 % of control | dose: 50.0 mg/kg/injection, schedule: Q04DX003 (ip), vehicle: saline 100 % of control | dose: 75.0 mg/kg/injection, schedule: Q04DX003 (ip), vehicle: saline 100 % of control | [2] 100 % of control | [3] 106 % of control | [4] 106 % of control

CN=C(C)NC1CCCCC1
inactive: dose: 50.0 mg/kg/injection, schedule: Q01DX009 (ip), vehicle: saline 96 % of control | dose: 100.0 mg/kg/injection, schedule: Q01DX009 (ip), vehicle: saline 96 % of control

CN(C)CC1C(=O)C2CCC1C2 (stereo unspecified)
inactive: [6] 98 % of control | [7] 98 % of control | dose: 200.0 mg/kg/injection, schedule: Q01DX005 (ip), vehicle: saline with Tween-80 108 % of control

CCOC(=O)C(Cc1ccc(N(CCCl)CCCl)cc1)NC(=O)C(Cc1ccc([N+](=O)[O-])cc1)NC(C)=O (stereo unspecified)
inactive: dose: 5.0 mg/kg/injection, schedule: Q04DX003 (ip), vehicle: water 91 % of control | dose: 10.0 mg/kg/injection, schedule: Q04DX003 (ip), vehicle: water 91 % of control | dose: 20.0 mg/kg/injection, schedule: Q04DX003 (ip), vehicle: water 90 % of control | dose: 40.0 mg/kg/injection, schedule: Q04DX003 (ip), vehicle: other 88 % of control | dose: 40.0 mg/kg/injection, schedule: Q04DX003 (ip), vehicle: water 98 % of control | dose: 80.0 mg/kg/injection, schedule: Q04DX003 (ip), vehicle: other 91 % of control | dose: 100.0 mg/kg/injection, schedule: Q04DX003 (ip), vehicle: other 90 % of control | dose: 160.0 mg/kg/injection, schedule: Q04DX003 (ip), vehicle: other 94 % of control | dose: 200.0 mg/kg/injection, schedule: Q04DX003 (ip), vehicle: other 102 % of control | dose: 400.0 mg/kg/injection, schedule: Q04DX003 (ip), vehicle: other 112 % of control

O=C([S-])N1CCCCC1.O=C([S-])N1CCCCC1.[Ni+2]
inactive: dose: 12.5 mg/kg/injection, schedule: Q01DX009 (ip), vehicle: saline with Tween-80 90 % of control | dose: 25.0 mg/kg/injection, schedule: Q01DX009 (ip), vehicle: saline with Tween-80 100 % of control | [1] 90 % of control

CC(O)(c1ccco1)c1nc2ccccc2s1 (stereo unspecified)
inactive: dose: 60.0 mg/kg/injection, schedule: Q01DX005 (ip), vehicle: Klucel (hydroxypropylcellulose) (HPC) 101 % of control | dose: 120.0 mg/kg/injection, schedule: Q01DX005 (ip), vehicle: Klucel (hydroxypropylcellulose) (HPC) 101 % of control

CCN(CCNc1ccc(CO)c2sc3ccccc3c(=O)c12)CC(C)(C)O
inactive: dose: 265.0 mg/kg/injection, schedule: Q04DX003 (ip), vehicle: saline with Tween-80 123 % of control
active: [4] 159 % of control | dose: 600.0 mg/kg/injection, schedule: Q04DX003 (ip), vehicle: saline with Tween-80 185 % of control

CCCN1CN2CCOC2C(C)(C)C1 (stereo unspecified)
inactive: dose: 40.0 mg/kg/injection, schedule: Q01DX009 (ip), vehicle: saline with Tween-80 112 % of control | dose: 80.0 mg/kg/injection, schedule: Q01DX009 (ip), vehicle: saline with Tween-80 114 % of control
